Results on nine compounds are retold here after US20240208944A1, “Quinazoline Derivatives, Pharmaceutical Compositions, and Therapeutic Uses Related to Nox Inhibition” (Emory University, priority 2021, published 2024).

Structures can show the parent of a compound that is named as a salt. Where two headings read alike, the source gives them in different places.

Data set [1] is described as follows: In vivo pharmacokinetics in Sprague Dawley rats. Also on record: species or system rat. Particulars: for half-life: male SD rats. From the text:
The compound has a brain-to-plasma ratio >10.
In Vivo Pharmacokinetics for Compound TG15-132S in Sprague Dawley (SD) Rats.

The target in another data set is NOX-4 (Homo sapiens (Human), UniProt Q9NPH5). Description: NOX-4 inhibition (Nox assays). The data set is classed as biochemical.
NOX-4, sequence (Q9NPH5 whole entry, species assumed): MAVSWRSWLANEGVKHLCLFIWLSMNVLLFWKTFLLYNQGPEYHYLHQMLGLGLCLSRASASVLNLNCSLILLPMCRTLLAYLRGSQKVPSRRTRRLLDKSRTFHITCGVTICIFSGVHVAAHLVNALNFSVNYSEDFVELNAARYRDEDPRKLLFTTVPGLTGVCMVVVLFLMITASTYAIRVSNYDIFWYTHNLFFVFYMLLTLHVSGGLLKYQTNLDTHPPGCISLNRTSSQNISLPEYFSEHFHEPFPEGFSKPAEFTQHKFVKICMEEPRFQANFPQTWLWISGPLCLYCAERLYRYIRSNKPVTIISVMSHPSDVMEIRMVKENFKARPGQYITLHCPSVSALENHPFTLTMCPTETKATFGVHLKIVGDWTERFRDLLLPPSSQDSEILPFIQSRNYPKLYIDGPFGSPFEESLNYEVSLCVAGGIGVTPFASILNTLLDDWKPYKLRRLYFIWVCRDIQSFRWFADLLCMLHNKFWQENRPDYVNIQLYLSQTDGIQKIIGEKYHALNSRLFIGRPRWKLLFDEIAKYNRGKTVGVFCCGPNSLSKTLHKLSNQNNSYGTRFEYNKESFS
NOX-4, sequence (P13498 whole entry partner, species assumed): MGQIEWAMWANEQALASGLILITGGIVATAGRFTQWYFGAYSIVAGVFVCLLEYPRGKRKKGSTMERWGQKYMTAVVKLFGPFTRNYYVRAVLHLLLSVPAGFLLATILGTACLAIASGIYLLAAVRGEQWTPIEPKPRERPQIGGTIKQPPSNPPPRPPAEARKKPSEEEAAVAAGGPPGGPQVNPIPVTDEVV
The nature of data set [2]: Aqueous (water) solubility. The data set is classed as physicochemical. The following applies: for solubility: water. Here is the method: (§1) The aqueous solubility, liver microsomal stability, and in vivo pharmacokinetics were determined. […] These derivatives have requisite stability in mouse liver microsomes.
The nature of data set [3]: Mouse liver microsomal stability. Type of data set: in vitro ADME. The following applies: mouse liver microsomes; read-out: MLM T1/2. The method, then:
as §1

The subject of another data set is THP1 monocytic cells. In words: PMA-induced mRNA levels of NOX2, its subunits and inflammatory markers in THP1 cells. The following applies: THP1 cells treated with PMA 100 ng/ml. The data set is classed as cell-based. An excerpt:
These markers are suppressed by the treatment of NOX2 inhibitor TG15-132.HCI.

In a further data set the target is NOX-2 (Homo sapiens (Human), UniProt P04839). Description: NOX-2 inhibition (Nox assays). The data set is classed as biochemical.
NOX-2, sequence (P04839 2-570, species assumed): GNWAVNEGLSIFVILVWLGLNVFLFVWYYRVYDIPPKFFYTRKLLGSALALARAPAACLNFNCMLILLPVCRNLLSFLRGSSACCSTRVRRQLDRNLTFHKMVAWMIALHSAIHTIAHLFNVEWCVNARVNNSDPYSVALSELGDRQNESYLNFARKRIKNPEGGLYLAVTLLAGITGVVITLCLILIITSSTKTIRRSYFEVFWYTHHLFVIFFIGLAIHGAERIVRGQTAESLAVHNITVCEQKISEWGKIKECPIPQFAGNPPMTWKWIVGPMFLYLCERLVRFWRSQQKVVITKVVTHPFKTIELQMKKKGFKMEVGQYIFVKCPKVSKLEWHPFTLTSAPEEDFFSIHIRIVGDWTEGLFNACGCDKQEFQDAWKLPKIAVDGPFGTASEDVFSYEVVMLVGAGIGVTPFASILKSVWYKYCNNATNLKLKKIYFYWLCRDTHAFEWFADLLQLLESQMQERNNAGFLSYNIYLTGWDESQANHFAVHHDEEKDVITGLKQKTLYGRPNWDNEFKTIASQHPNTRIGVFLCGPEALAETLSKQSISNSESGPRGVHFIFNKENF
NOX-2, sequence (P13498 whole entry partner, species assumed): as the sequence (P13498 whole entry partner, species assumed) above
A further data set can be described thus: Cytotoxicity CC50. Type of data set: cell-based.

`CN(C)CCCn1c(SCCc2c[nH]c3ccccc23)nc2ccc(F)cc2c1=O.Cl` [TG15-132S, 2-((2-(1H-indol-3-yl)ethyl)thio)-3-(3-(dimethylamino)propyl)-6-fluoroquinazolin-4(3H)-one, hydrochloride] displayed a clearance rate in data set [1] (SD rats, single 20 mg/kg IP) of 1.965 L/h/kg. Also, the half-life in data set [1] (Sprague-Dawley, rat, 20 mg/kg IP, brain, read-out: half-life in the brain) was above 5 h; in data set [1] (Sprague-Dawley, rat, 20 mg/kg IP, plasma, read-out: half-life in plasma), above 5 h; in data set [3], 0.4 h. For the same compound, the Kp in data set [1] (male, Sprague-Dawley, brain and plasma, rat, 20 mg/kg IP, read-out: In vivo B/P Ratio (brain-to-plasma ratio)) was above 10. In addition, the “In vivo B/P Ratio (brain-to-plasma ratio)” value in data set [1] (rat, 20 mg/kg IP, hydrochloride) is above 10. Also, the 50% inhibitory concentration (IC50) amounted to 26 µM at NOX-4 and 3.3 µM on NOX-2. The “water solubility (in words)” value in data set [2] is recorded as “excellent water solubility”. This compound also registered a solubility in data set [2] of 1200 µM. The “mRNA levels of NOX2 (gp91phox), p47phox, p67phox, IL-1beta and TNF” value in the data set with THP1 monocytic cells is listed as “suppressed”. Moreover, in the data set “Cytotoxicity CC50”, the CC50 is above 20 µM.

`O=C(CCCn1c(=S)[nH]c2ccc(F)cc2c1=O)N1CCN(c2ccccc2O)CC1` [LY4-123S, 6-fluoro-3-(4-(4-(2-hydroxyphenyl)piperazin-1-yl)-4-oxobutyl)-2-thioxo-2,3-dihydroquinazolin-4(1H)-one]: the IC50 is 8.3 µM on NOX-4 and 3.3 µM against NOX-2.

Consider `CN(C)CCCn1c(SCc2ccccn2)nc2ccc(F)cc2c1=O` [LY5-10, 3-(3-(dimethylamino)propyl)-6-fluoro-2-((pyridin-2-ylmethyl)thio)quinazolin-4(3H)-one], for which the IC50 at NOX-2 is above 100 µM.

Consider `CN(C)CCCn1c(SCCCc2ccccn2)nc2ccc(F)cc2c1=O` [LY5-11, 3-(3-(dimethylamino)propyl)-6-fluoro-2-((3-(pyridin-2-yl)propyl)thio)quinazolin-4(3H)-one], for which the IC50 against NOX-2 was above 100 µM.

On NOX-2, `CN(C)CCCn1c(SCCc2ccccn2)nc2ccc(Cl)cc2c1=O` [TG15-124-HCl, 6-chloro-3-(3-(dimethylamino)propyl)-2-((2-(pyridin-2-yl)ethyl)thio)quinazolin-4(3H)-one] showed an IC50 above 100 µM. The CC50 in “Cytotoxicity CC50” was above 10 µM.

On NOX-2, `CN(C)CCCn1c(SCCc2ccccn2)nc2ccc(F)cc2c1=O` [TG15-131-HCl, 3-(3-(dimethylamino)propyl)-6-fluoro-2-((2-(pyridin-2-yl)ethyl)thio)quinazolin-4(3H)-one] displayed an IC50 above 50 µM.

As for `CC(C)N1CCN(CCCn2c(SCCc3c[nH]c4ccccc34)nc3ccc(F)cc3c2=O)CC1` [TG17-57, 2-((2-(1H-indol-3-yl)ethyl)thio)-6-fluoro-3-(3-(4-isopropylpiperazin-1-yl)propyl)quinazolin-4(3H)-one], on NOX-2, the IC50 worked out at 2.4 µM.

In the case of `O=C(CCCn1c(=S)[nH]c2ccccc2c1=O)N1CCN(c2ccccc2O)CC1` [Compd. 43, 3-(4-(4-(2-hydroxyphenyl)piperazin-1-yl)-4-oxobutyl)-2-thioxo-2,3-dihydroquinazolin-4(1H)-one], the figures for the IC50 at NOX-4 and at NOX-2 were above 50 µM and 2.3 µM, respectively. The CC50 in the data set “Cytotoxicity CC50” was above 20 µM.

As for `CN(C)CCCn1c(SCCc2c[nH]c3ccccc23)nc2ccc(Cl)cc2c1=O.Cl` [TG15-139S, 2-((2-(1H-indol-3-yl)ethyl)thio)-6-chloro-3-(3-(dimethylamino)propyl)quinazolin-4(3H)-one. Hydrochloride], the Kp at 8 h in data set [1] (male, Sprague-Dawley, rat, brain and plasma, SD rats, single 20 mg/kg IP, up to 8 h, read-out: brain-to-plasma ratio up to 8 h) was above 10. In addition, the Kp in data set [1] (male, Sprague-Dawley, rat, brain and plasma, SD rats, single 20 mg/kg IP, read-out: brain-to-plasma ratio) was above 23. In addition, 32 µM corresponded to half-maximal inhibition against NOX-4 (IC50). Also, in data set [2], the “water solubility (in words)” value is recorded as “excellent water solubility” and the solubility was 2350 µM. For the same compound, the half-life in data set [3] is 1.25 h. This compound returned an IC50 against NOX-2 of 1.65 µM. Besides, in “Cytotoxicity CC50”, the CC50 was above 10 µM.

As usually defined, the IC50 is the midpoint of a concentration-inhibition curve. Lower therefore signals greater potency. The term solubility denotes how much of the substance goes into solution per volume. The low end stands for little dissolved substance, the high end for much dissolved substance. As usually defined, the CC50 is the concentration giving 50% cytotoxicity. High values mean better tolerance by the cells, low ones harm at low concentration.
